{"source": "ChEMBL document CHEMBL1201862", "about": "“PubChem BioAssay data set” (2004)", "experiment_in_all_cases": "NCI anticancer screen, dose series, 48 h", "key": {"786-0": {"tested_on": "786-0"}, "A498": {"tested_on": "A498"}, "A549": {"tested_on": "A549"}, "ACHN": {"tested_on": "ACHN"}, "BT-549": {"tested_on": "BT-549"}, "CAKI-1": {"tested_on": "CAKI-1"}, "CCRF-CEM": {"tested_on": "CCRF-CEM"}, "COLO 205": {"tested_on": "COLO 205"}, "DLD-1": {"tested_on": "DLD-1"}, "DMS-114": {"tested_on": "DMS-114"}, "DMS-273": {"tested_on": "DMS-273"}, "DU-145": {"tested_on": "DU-145"}, "EKVX": {"tested_on": "EKVX"}, "HCC 2998": {"tested_on": "HCC 2998"}, "HCT-116": {"tested_on": "HCT-116"}, "HCT-15": {"tested_on": "HCT-15"}, "HL-60": {"tested_on": "HL-60"}, "HOP-18": {"tested_on": "HOP-18"}, "HOP-62": {"tested_on": "HOP-62"}, "HOP-92": {"tested_on": "HOP-92"}, "HT-29": {"tested_on": "HT-29"}, "Hs-578T": {"tested_on": "Hs-578T"}, "IGROV-1": {"tested_on": "IGROV-1"}, "K562": {"tested_on": "K562"}, "KM-20L2": {"tested_on": "KM-20L2"}, "KM12": {"tested_on": "KM12"}, "LOX IMVI": {"tested_on": "LOX IMVI"}, "LXFL 529": {"tested_on": "LXFL 529"}, "M14": {"tested_on": "M14"}, "M19-MEL": {"tested_on": "M19-MEL"}, "MCF7": {"tested_on": "MCF7"}, "MDA-MB-231": {"tested_on": "MDA-MB-231"}, "MDA-MB-435": {"tested_on": "MDA-MB-435"}, "MDA-N": {"tested_on": "MDA-N"}, "MOLT-4": {"tested_on": "MOLT-4"}, "Malme-3M": {"tested_on": "Malme-3M"}, "NCI-H226": {"tested_on": "NCI-H226"}, "NCI-H23": {"tested_on": "NCI-H23"}, "NCI-H460": {"tested_on": "NCI-H460"}, "NCI-H522": {"tested_on": "NCI-H522"}, "NCI/ADR-RES": {"tested_on": "NCI/ADR-RES"}, "OVCAR-3": {"tested_on": "OVCAR-3"}, "OVCAR-4": {"tested_on": "OVCAR-4"}, "OVCAR-5": {"tested_on": "OVCAR-5"}, "OVCAR-8": {"tested_on": "OVCAR-8"}, "PC-3": {"tested_on": "PC-3"}, "RPMI-8226": {"tested_on": "RPMI-8226"}, "RXF 393": {"tested_on": "RXF 393"}, "RXF 631": {"tested_on": "RXF 631"}, "SF-268": {"tested_on": "SF-268"}, "SF-295": {"tested_on": "SF-295"}, "SF-539": {"tested_on": "SF-539"}, "SK-MEL-28": {"tested_on": "SK-MEL-28"}, "SK-MEL-2": {"tested_on": "SK-MEL-2"}, "SK-MEL-5": {"tested_on": "SK-MEL-5"}, "SK-OV-3": {"tested_on": "SK-OV-3"}, "SN12C": {"tested_on": "SN12C"}, "SNB-19": {"tested_on": "SNB-19"}, "SNB-75": {"tested_on": "SNB-75"}, "SNB-78": {"tested_on": "SNB-78"}, "SR": {"tested_on": "SR"}, "SW-620": {"tested_on": "SW-620"}, "T47D": {"tested_on": "T47D"}, "TK-10": {"tested_on": "TK-10"}, "U-251": {"tested_on": "U-251"}, "UACC-257": {"tested_on": "UACC-257"}, "UACC-62": {"tested_on": "UACC-62"}, "UO-31": {"tested_on": "UO-31"}, "XF498": {"tested_on": "XF498"}}, "note": "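Compound exposure: 48 hours, 5 concentrations, 96-well plates. Abbreviation: GI50, concentration required for 50% inhibition of growth.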 The source made the active and inactive calls. Rule as the data show it: active = GI50 up to about 1.1 µM and inactive = higher.", "data": [{"smiles": "C=C1CC2(OC1=O)c1ccccc1C=Cc1ccccc12", "values": [{"measurement": "GI50", "setting": "786-0", "value": "2.86 µM (inactive)"}, {"measurement": "GI50", "setting": "A498", "value": "8.24 µM (inactive)"}, {"measurement": "GI50", "setting": "A549", "value": "9.42 µM (inactive)"}, {"measurement": "GI50", "setting": "ACHN", "value": "4.8 µM (inactive)"}, {"measurement": "GI50", "setting": "BT-549", "value": "1.83 µM (inactive)"}, {"measurement": "GI50", "setting": "CAKI-1", "value": "3.05 µM (inactive)"}, {"measurement": "GI50", "setting": "CCRF-CEM", "value": "0.697 µM (active)"}, {"measurement": "GI50", "setting": "COLO 205", "value": "2.3 µM (inactive)"}, {"measurement": "GI50", "setting": "DLD-1", "value": "1.87 µM (inactive)"}, {"measurement": "GI50", "setting": "DMS-114", "value": "7.76 µM (inactive)"}, {"measurement": "GI50", "setting": "DMS-273", "value": "14.8 µM (inactive)"}, {"measurement": "GI50", "setting": "DU-145", "value": "11.5 µM (inactive)"}, {"measurement": "GI50", "setting": "EKVX", "value": "8.85 µM (inactive)"}, {"measurement": "GI50", "setting": "HCC 2998", "value": "6.95 µM (inactive)"}, {"measurement": "GI50", "setting": "HCT-116", "value": "1.73 µM (inactive)"}, {"measurement": "GI50", "setting": "HCT-15", "value": 3.25, "unit": "µM"}, {"measurement": "GI50", "setting": "HL-60", "value": "0.661 µM (active)"}, {"measurement": "GI50", "setting": "HOP-18", "value": "14.3 µM (inactive)"}, {"measurement": "GI50", "setting": "HOP-62", "value": "12.6 µM (inactive)"}, {"measurement": "GI50", "setting": "HOP-92", "value": "1.61 µM (inactive)"}, {"measurement": "GI50", "setting": "HT-29", "value": "2.44 µM (inactive)"}, {"measurement": "GI50", "setting": "Hs-578T", "value": "2.51 µM (inactive)"}, {"measurement": "GI50", "setting": "IGROV-1", "value": "7.26 µM (inactive)"}, {"measurement": "GI50", "setting": "K562", "value": "1.2 µM (inactive)"}, {"measurement": "GI50", "setting": "KM-20L2", "value": "8.13 µM (inactive)"}, {"measurement": "GI50", "setting": "KM12", "value": "4.05 µM (inactive)"}, {"measurement": "GI50", "setting": "LOX IMVI", "value": "1.38 µM (inactive)"}, {"measurement": "GI50", "setting": "LXFL 529", "value": "2.92 µM (inactive)"}, {"measurement": "GI50", "setting": "M14", "value": "4.25 µM (inactive)"}, {"measurement": "GI50", "setting": "M19-MEL", "value": "5.47 µM (inactive)"}, {"measurement": "GI50", "setting": "MCF7", "value": "2.3 µM (inactive)"}, {"measurement": "GI50", "setting": "MDA-MB-231", "value": "2.26 µM (inactive)"}, {"measurement": "GI50", "setting": "MDA-MB-435", "value": "1.68 µM (inactive)"}, {"measurement": "GI50", "setting": "MDA-N", "value": "1.96 µM (inactive)"}, {"measurement": "GI50", "setting": "MOLT-4", "value": "1.81 µM (inactive)"}, {"measurement": "GI50", "setting": "Malme-3M", "value": "4.94 µM (inactive)"}, {"measurement": "GI50", "setting": "NCI-H226", "value": "5.08 µM (inactive)"}, {"measurement": "GI50", "setting": "NCI-H23", "value": "6.32 µM (inactive)"}, {"measurement": "GI50", "setting": "NCI-H460", "value": "11.2 µM (inactive)"}, {"measurement": "GI50", "setting": "NCI-H522", "value": "1.76 µM (inactive)"}, {"measurement": "GI50", "setting": "NCI/ADR-RES", "value": "1.64 µM (inactive)"}, {"measurement": "GI50", "setting": "OVCAR-3", "value": "4.61 µM (inactive)"}, {"measurement": "GI50", "setting": "OVCAR-4", "value": "4.4 µM (inactive)"}, {"measurement": "GI50", "setting": "OVCAR-5", "value": "9.31 µM (inactive)"}, {"measurement": "GI50", "setting": "OVCAR-8", "value": "5.21 µM (inactive)"}, {"measurement": "GI50", "setting": "PC-3", "value": "5.79 µM (inactive)"}, {"measurement": "GI50", "setting": "RPMI-8226", "value": "1.42 µM (inactive)"}, {"measurement": "GI50", "setting": "RXF 393", "value": "3.19 µM (inactive)"}, {"measurement": "GI50", "setting": "RXF 631", "value": "9.2 µM (inactive)"}, {"measurement": "GI50", "setting": "SF-268", "value": "7.23 µM (inactive)"}, {"measurement": "GI50", "setting": "SF-295", "value": "18 µM (inactive)"}, {"measurement": "GI50", "setting": "SF-539", "value": "2.83 µM (inactive)"}, {"measurement": "GI50", "setting": "SK-MEL-28", "value": "4.34 µM (inactive)"}, {"measurement": "GI50", "setting": "SK-MEL-2", "value": "8.65 µM (inactive)"}, {"measurement": "GI50", "setting": "SK-MEL-5", "value": "7.33 µM (inactive)"}, {"measurement": "GI50", "setting": "SK-OV-3", "value": "16.9 µM (inactive)"}, {"measurement": "GI50", "setting": "SN12C", "value": "2.66 µM (inactive)"}, {"measurement": "GI50", "setting": "SNB-19", "value": "16 µM (inactive)"}, {"measurement": "GI50", "setting": "SNB-75", "value": "9.18 µM (inactive)"}, {"measurement": "GI50", "setting": "SNB-78", "value": "3.08 µM (inactive)"}, {"measurement": "GI50", "setting": "SR", "value": "0.82 µM (active)"}, {"measurement": "GI50", "setting": "SW-620", "value": "1.5 µM (inactive)"}, {"measurement": "GI50", "setting": "T47D", "value": "1.93 µM (inactive)"}, {"measurement": "GI50", "setting": "TK-10", "value": "5.86 µM (inactive)"}, {"measurement": "GI50", "setting": "U-251", "value": "8.04 µM (inactive)"}, {"measurement": "GI50", "setting": "UACC-257", "value": "5.14 µM (inactive)"}, {"measurement": "GI50", "setting": "UACC-62", "value": "5.13 µM (inactive)"}, {"measurement": "GI50", "setting": "UO-31", "value": "8.3 µM (inactive)"}, {"measurement": "GI50", "setting": "XF498", "value": "13.6 µM (inactive)"}]}]}
